Measured values reported in patent US20110105517A1, “THERAPEUTIC AGENT FOR AMYOTROPHIC LATERAL SCLEROSIS” (priority 2008, published 2011).
Where a name gives a salt, the structure may show the parent alone.

Columns and labels:
[1] = tested on: HeLa cells; test: Cell viability assay 1: oxidative stress (menadione)-induced cell death in non-neuronal cells; assay type: cell-based; conditions: pre-treatment 2.5, 5, 10 μM for 24 h; menadione 20-80 μM for 4 h; AlamarBlue; versus DMSO alone; FIG. 1
Method: HeLa cells (1.0×10^6) were plated in 75 cm^2 flask and were cultured in the presence of 5% CO2 at 37° C. for 16 hours. Bromocriptine mesylate in DMSO was then added to the medium at the final concentrations of 2.5, 5 and 10 μM. The amount of DMSO used in each samples were adjusted to that used in the 10 μM sample. Cells were cultured for additional 24 hours (bromocriptine mesylate treatment). As a negative control, DMSO without bromocriptine mesylate was added. Menadione was then added to the HeLa cells treated with bromocriptine mesylate at the final concentrations of 0, 20, 40, 60 and 80 μM and the cells were further incubated in 5% CO2, at 37° C. (oxidative stress treatment). As a negative control, 0.1% Triton X-100/DMEM/10% FBS was added in place of menadione. After 4 hours of oxidative stress treatment, the medium was replaced with that containing AlamarBlue, and the cell culture was resumed in 5% CO2, at 37° C. After 16 hours of incubation, the number of viable cells was counted by measuring the fluorescence at excitation wave length 530 nm/emission wave length 580 nm, using the fluorescence plate reader.
The X-axis of the graph represents menadione concentration (μM), while the Y-axis of the graph represents cell viability (%). The Y-axis values under each condition are shown as viability relative to the no menadione treatment (0 μM) control which is set at 100%.

[2] = tested on: ALS-SOD1^H46R mouse; test: Efficacy test in vivo: survival after the onset of the disease; conditions: i.p. once a day from onset, non-administered group 27.8±2.1 day, FIG. 4
Method: (§1) In this test, ALS-SOD1^H46R mouse carrying the mutation in the SOD1 gene (SOD1^H46R) (ALS1) was used. The mice were housed at 23° C. with a 12 hr light/dark cycle. Bromocriptine mesylate was suspended in 0.5% carboxymethylcellulose sodium (CMC-Na). The administration of bromocriptine mesylate was initiated when the neurological symptoms was first observed (first manifestation of the illness) in the ALS-SOD1^H46R mouse in the balance beam test. The dosage of bromocriptine mesylate was 10 mg or 1 mg per 1 kg of body weight in each of the animals, and administered by intraperitoneal injection once a day until the animals died (group treated with bromocriptine mesylate). As the negative control, the mice were administered with 0.5% CMC-Na (5 ml/kg) (group not treated with bromocriptine mesylate). Balance beam test (stainless beam: 50 cm long, 0.9 cm wide) was employed to evaluate the appearance of neurological symptoms. The evaluation of symptoms was carried out in 5 grades. Grade 3 was considered to be the first manifestation of the symptoms. The evaluation criteria used are shown below.

[3] = tested on: ALS-SOD1^H46R mouse; test: Efficacy test in vivo: motor function in vertical climb test; conditions: 10 mg/kg i.p. once a day from onset of symptoms; n=5; non-administered group deteriorated significantly; FIG. 3
Method: as §1
The motor functions of mice in bromocriptine mesylate administered group and non-administered group were evaluated by vertical climb test (stainless bar: 50 cm long, 0.9 cm wide). […] The best score among the 5 test results was recorded as the motor function value. […]

[4] = tested on: differentiated SH-SY5Y cells; test: Cell viability assay 2: oxidative stress (menadione)-induced cell death in differentiated neuronal cells; assay type: cell-based, human; conditions: retinoic acid-differentiated cells; pre-treatment 5, 10, 20, 40 μM for 24 h; menadione 20-50 μM for 4 h; AlamarBlue; versus DMSO alone; FIG. 2
Method: SH-SY5Y cells were suspended in DMEM supplemented with 10% FBS, were plated at 1.0×10^4 cells/well in 96 well microtiter plate, and were incubated in 5% CO2 at 37° C. for 24 hours. The medium was then replaced with DMEM supplemented with 10% FBS and 10 μM all-trans retinoic acid (RA) (DMEM/FBS/RA), and after 5 days, bromocriptine mesylate in DMSO was added to the medium at the final concentrations of 5, 10, 20 and 40 μM. The amount of DMSO used in each samples were adjusted to that used in the 40 μM sample. The cells were cultured for additional 24 hours (bromocriptine mesylate treatment). As a negative control, DMSO without bromocriptine mesylate was added. Menadione was then added to the SH-SY5Y cells treated either with DMSO alone or bromocriptine mesylate at the final concentrations of 0, 20, 30, 40, and 50 μM, and cultured in 5% CO2 at 37° C. (oxidative stress treatment). As a negative control, 0.1% Triton X-100/DMEM/10% FBS was added. After 4 hours of oxidative stress treatment, the medium was replaced with that containing AlamarBlue, and the cell culture was resumed in 5% CO2, at 37° C. After 16 hours of incubation, the number of viable cells was counted by measuring the fluorescence at excitation wave length 530 nm/emission wave length 580 nm, using the fluorescence plate reader. […]

CC(C)C[C@H]1C(=O)N2CCC[C@H]2[C@]2(O)O[C@](NC(=O)[C@@H]3C=C4c5cccc6[nH]c(Br)c(c56)C[C@H]4N(C)C3)(C(C)C)C(=O)N12 [bromocriptine mesylate]
viabilities of HeLa cells exposed to oxidative stress by menadione [1]: increased depending on the concentration of bromocriptine mesylate | overall survival after the onset of the disease ([2]; 1 mg/kg, n=4): 35.3 ± 6.0 days | overall survival after the onset of the disease ([2]; 10 mg/kg, n=5): 38.0 ± 2.9 days | motor function (vertical climb test) at 21 weeks of age [3]: largely unchanged | viabilities of SH-SY5Y cells exposed to oxidative stress by menadione [4]: increased depending on the concentration of bromocriptine mesylate
